For the assay, the target named is Signal transducer and activator of transcription 3 (Homo sapiens, UniProt P40763). As to the kind of experiment: Inhibition of STAT3 (unknown origin) transfected in human HepG2 cells assessed as inhibition of IL-6 induced STAT3 phosphorylation by luciferase reporter gene assay. For orientation: Reporter assays use an easily measured gene product as a stand-in for the process of interest.
Chain of Signal transducer and activator of transcription 3 (P40763 whole entry): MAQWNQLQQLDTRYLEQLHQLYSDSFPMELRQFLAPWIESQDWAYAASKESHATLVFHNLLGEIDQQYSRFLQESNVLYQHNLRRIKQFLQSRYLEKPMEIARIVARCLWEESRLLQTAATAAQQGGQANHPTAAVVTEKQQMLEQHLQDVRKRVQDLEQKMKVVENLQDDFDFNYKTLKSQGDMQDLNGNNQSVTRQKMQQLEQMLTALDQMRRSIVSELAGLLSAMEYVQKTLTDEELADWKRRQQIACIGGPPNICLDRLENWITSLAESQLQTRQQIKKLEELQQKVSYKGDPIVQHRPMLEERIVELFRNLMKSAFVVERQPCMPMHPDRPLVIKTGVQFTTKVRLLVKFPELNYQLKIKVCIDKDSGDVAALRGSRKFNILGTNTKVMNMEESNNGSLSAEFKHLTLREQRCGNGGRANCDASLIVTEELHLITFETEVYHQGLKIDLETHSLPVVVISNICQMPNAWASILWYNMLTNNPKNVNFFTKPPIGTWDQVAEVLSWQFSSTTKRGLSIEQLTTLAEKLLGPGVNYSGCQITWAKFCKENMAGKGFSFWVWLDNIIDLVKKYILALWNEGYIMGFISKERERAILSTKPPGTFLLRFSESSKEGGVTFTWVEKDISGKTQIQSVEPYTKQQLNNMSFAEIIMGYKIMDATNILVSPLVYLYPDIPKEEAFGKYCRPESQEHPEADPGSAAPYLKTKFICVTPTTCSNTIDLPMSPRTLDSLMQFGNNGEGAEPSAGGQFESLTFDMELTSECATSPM

Regarding `C=C(CCCCC)[C@@H](O)[C@H](C)C(=O)N1C(=O)OC[C@@H]1C(C)C`, the IC50 (commonly the concentration that gives 50% inhibition) came out at 5.9 µM.

The values above are taken from BindingDB's records for PubMed 36971365 (Dongguk University, 2023).
